From paper PMC7933434, “Entropy-driven binding of gut bacterial β-glucuronidase inhibitors ameliorates irinotecan-induced toxicity” (Communications Biology, 2021)
“And” between values parts separate entries of the source, which are not always exact repeats. Equal values may be shown once.

Columns and labels:
HsGUS (human GUS) = target: T1, HsGUS (human GUS) (Homo sapiens, UniProt P08236); assay: GUS inhibition assay, hydrolysis of 4-methylumbelliferyl-β-glucuronide, HsGUS; type: biochemical; set-up: GUS activity (hydrolysis rate of MUG): unit not given here; conditions: for Ki: HsGUS
T1 construct: HsGUS was prepared as described[37]; made in house
T1 sequence (P08236 23-651): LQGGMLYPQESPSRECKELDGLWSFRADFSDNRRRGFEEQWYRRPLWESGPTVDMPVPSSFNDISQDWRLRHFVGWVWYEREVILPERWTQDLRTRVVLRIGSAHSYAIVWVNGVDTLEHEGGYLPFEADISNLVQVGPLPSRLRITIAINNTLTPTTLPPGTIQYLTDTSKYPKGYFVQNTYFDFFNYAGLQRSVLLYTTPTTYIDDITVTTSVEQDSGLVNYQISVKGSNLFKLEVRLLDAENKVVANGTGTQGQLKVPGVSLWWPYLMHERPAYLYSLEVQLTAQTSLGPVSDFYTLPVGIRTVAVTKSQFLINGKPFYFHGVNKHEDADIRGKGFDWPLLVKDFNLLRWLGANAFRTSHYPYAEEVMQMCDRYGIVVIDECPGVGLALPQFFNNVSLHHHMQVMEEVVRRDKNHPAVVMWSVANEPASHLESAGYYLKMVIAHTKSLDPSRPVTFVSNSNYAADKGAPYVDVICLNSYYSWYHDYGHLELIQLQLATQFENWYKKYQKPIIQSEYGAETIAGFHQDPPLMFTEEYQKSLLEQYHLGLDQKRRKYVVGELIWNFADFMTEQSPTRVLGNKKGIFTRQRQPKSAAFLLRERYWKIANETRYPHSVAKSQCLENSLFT

[1] = set-up: method as in PMID 18537837; conditions: endocyclic amine; cited from earlier work

**Q.** Which Ki (HsGUS (human GUS)) does the source give for O=C(O)[C@H]1CNC[C@@H](O)[C@@H]1O [Inhibitor 1, Uronic isofagomine] here?
**A.** Its Ki is 180 nM.

**Q.** What about the Ki (HsGUS (human GUS); 50 mM sodium acetate pH 4.5, 37 °C) of the same molecule?
**A.** Its Ki is 180 ± 2 nM.

**Q.** What about the “GUS activity (hydrolysis rate of MUG)” value (HsGUS (human GUS); [Inhibitor 1] =6.25 nM, [MUG] 0.1 mM) of the same molecule?
**A.** The value was 1052.77 and 919.367.

**Q.** What about the “GUS activity (hydrolysis rate of MUG)” value (HsGUS (human GUS); [Inhibitor 1] =6.25 nM, [MUG] 0.2 mM) of the same molecule?
**A.** Its value is 1682.62 and 1656.5.

**Q.** And the “GUS activity (hydrolysis rate of MUG)” value (HsGUS (human GUS); [Inhibitor 1] =6.25 nM, [MUG] 0.4 mM)?
**A.** Its value is 2736.45 and 2863.61.

**Q.** And the “GUS activity (hydrolysis rate of MUG)” value (HsGUS (human GUS); [Inhibitor 1] =6.25 nM, [MUG] 0.6 mM)?
**A.** Its value is 3626.7 and 3614.16.

**Q.** And the “GUS activity (hydrolysis rate of MUG)” value (HsGUS (human GUS); [Inhibitor 1] =6.25 nM, [MUG] 0.8 mM)?
**A.** Its value is 4294.49 and 4051.74.

**Q.** What about the “GUS activity (hydrolysis rate of MUG)” value (HsGUS (human GUS); [Inhibitor 1] =6.25 nM, [MUG] 1.2 mM) of the same molecule?
**A.** Its value is 5041.75 and 5285.84.

**Q.** What about the “GUS activity (hydrolysis rate of MUG)” value (HsGUS (human GUS); [Inhibitor 1] =6.25 nM, [MUG] 1.6 mM) of the same molecule?
**A.** Its value is 5716.1 and 5569.72.

**Q.** And the “GUS activity (hydrolysis rate of MUG)” value (HsGUS (human GUS); [Inhibitor 1] =6.25 nM, [MUG] 2 mM)?
**A.** The value was 6253.7 and 6084.56.

**Q.** And the “GUS activity (hydrolysis rate of MUG)” value (HsGUS (human GUS); [Inhibitor 1] =12.5 nM, [MUG] 0.1 mM)?
**A.** Its value is 964.973 and 946.536.

**Q.** And the “GUS activity (hydrolysis rate of MUG)” value (HsGUS (human GUS); [Inhibitor 1] =12.5 nM, [MUG] 0.2 mM)?
**A.** The value was 1634.13 and 1650.2.

**Q.** And the “GUS activity (hydrolysis rate of MUG)” value (HsGUS (human GUS); [Inhibitor 1] =12.5 nM, [MUG] 0.4 mM)?
**A.** The value was 2735.98 and 2661.78.

**Q.** And the “GUS activity (hydrolysis rate of MUG)” value (HsGUS (human GUS); [Inhibitor 1] =12.5 nM, [MUG] 0.6 mM)?
**A.** Its value is 3585.06 and 3536.5.

**Q.** What about the “GUS activity (hydrolysis rate of MUG)” value (HsGUS (human GUS); [Inhibitor 1] =12.5 nM, [MUG] 0.8 mM) of the same molecule?
**A.** Its value is 4058.66 and 4004.34.

**Q.** And the “GUS activity (hydrolysis rate of MUG)” value (HsGUS (human GUS); [Inhibitor 1] =12.5 nM, [MUG] 1.2 mM)?
**A.** Its value is 4753.61 and 4787.97.

**Q.** And the “GUS activity (hydrolysis rate of MUG)” value (HsGUS (human GUS); [Inhibitor 1] =12.5 nM, [MUG] 1.6 mM)?
**A.** Its value is 5496.19 and 5468.5.

**Q.** What about the “GUS activity (hydrolysis rate of MUG)” value (HsGUS (human GUS); [Inhibitor 1] =12.5 nM, [MUG] 2 mM) of the same molecule?
**A.** Its value is 6215.35 and 6326.21.

**Q.** What about the “GUS activity (hydrolysis rate of MUG)” value (HsGUS (human GUS); [Inhibitor 1] =25 nM, [MUG] 0.1 mM) of the same molecule?
**A.** Its value is 888.487 and 880.944.

**Q.** What about the “GUS activity (hydrolysis rate of MUG)” value (HsGUS (human GUS); [Inhibitor 1] =25 nM, [MUG] 0.2 mM) of the same molecule?
**A.** Its value is 1602.44 and 1479.41.

**Q.** What about the “GUS activity (hydrolysis rate of MUG)” value (HsGUS (human GUS); [Inhibitor 1] =25 nM, [MUG] 0.4 mM) of the same molecule?
**A.** The value was 2621.31 and 2595.47.

**Q.** What about the “GUS activity (hydrolysis rate of MUG)” value (HsGUS (human GUS); [Inhibitor 1] =25 nM, [MUG] 0.6 mM) of the same molecule?
**A.** Its value is 3374.76 and 3226.51.

**Q.** And the “GUS activity (hydrolysis rate of MUG)” value (HsGUS (human GUS); [Inhibitor 1] =25 nM, [MUG] 0.8 mM)?
**A.** The value was 3934.08 and 3700.76.

**Q.** What about the “GUS activity (hydrolysis rate of MUG)” value (HsGUS (human GUS); [Inhibitor 1] =25 nM, [MUG] 1.2 mM) of the same molecule?
**A.** The value was 4557.18 and 4846.86.

**Q.** And the “GUS activity (hydrolysis rate of MUG)” value (HsGUS (human GUS); [Inhibitor 1] =25 nM, [MUG] 1.6 mM)?
**A.** The value was 5394.55 and 5298.67.

**Q.** What about the “GUS activity (hydrolysis rate of MUG)” value (HsGUS (human GUS); [Inhibitor 1] =25 nM, [MUG] 2 mM) of the same molecule?
**A.** Its value is 6010.34 and 6068.98.

**Q.** And the “GUS activity (hydrolysis rate of MUG)” value (HsGUS (human GUS); [Inhibitor 1] =50 nM, [MUG] 0.1 mM)?
**A.** Its value is 874.409 and 866.834.

**Q.** And the “GUS activity (hydrolysis rate of MUG)” value (HsGUS (human GUS); [Inhibitor 1] =50 nM, [MUG] 0.2 mM)?
**A.** Its value is 1446.88 and 1448.8.

**Q.** What about the “GUS activity (hydrolysis rate of MUG)” value (HsGUS (human GUS); [Inhibitor 1] =50 nM, [MUG] 0.4 mM) of the same molecule?
**A.** Its value is 2554.3 and 2362.71.

**Q.** And the “GUS activity (hydrolysis rate of MUG)” value (HsGUS (human GUS); [Inhibitor 1] =50 nM, [MUG] 0.6 mM)?
**A.** Its value is 3157.04 and 3034.34.

**Q.** And the “GUS activity (hydrolysis rate of MUG)” value (HsGUS (human GUS); [Inhibitor 1] =50 nM, [MUG] 0.8 mM)?
**A.** The value was 3775.39 and 3558.36.

**Q.** What about the “GUS activity (hydrolysis rate of MUG)” value (HsGUS (human GUS); [Inhibitor 1] =50 nM, [MUG] 1.2 mM) of the same molecule?
**A.** Its value is 4410.62 and 4573.1.

**Q.** And the “GUS activity (hydrolysis rate of MUG)” value (HsGUS (human GUS); [Inhibitor 1] =50 nM, [MUG] 1.6 mM)?
**A.** The value was 4956.91 and 5204.72.

**Q.** And the “GUS activity (hydrolysis rate of MUG)” value (HsGUS (human GUS); [Inhibitor 1] =50 nM, [MUG] 2 mM)?
**A.** Its value is 5814.43 and 5846.27.

**Q.** And the “GUS activity (hydrolysis rate of MUG)” value (HsGUS (human GUS); [Inhibitor 1] =100 nM, [MUG] 0.1 mM)?
**A.** The value was 714.467 and 698.837.

**Q.** And the “GUS activity (hydrolysis rate of MUG)” value (HsGUS (human GUS); [Inhibitor 1] =100 nM, [MUG] 0.2 mM)?
**A.** The value was 1267.32 and 1255.83.

**Q.** What about the “GUS activity (hydrolysis rate of MUG)” value (HsGUS (human GUS); [Inhibitor 1] =100 nM, [MUG] 0.4 mM) of the same molecule?
**A.** The value was 2205.11 and 2224.51.

**Q.** What about the “GUS activity (hydrolysis rate of MUG)” value (HsGUS (human GUS); [Inhibitor 1] =100 nM, [MUG] 0.6 mM) of the same molecule?
**A.** The value was 2972.37 and 2813.

**Q.** What about the “GUS activity (hydrolysis rate of MUG)” value (HsGUS (human GUS); [Inhibitor 1] =100 nM, [MUG] 0.8 mM) of the same molecule?
**A.** The value was 3383.16 and 3413.02.

**Q.** And the “GUS activity (hydrolysis rate of MUG)” value (HsGUS (human GUS); [Inhibitor 1] =100 nM, [MUG] 1.2 mM)?
**A.** Its value is 4189.2 and 4174.02.

**Q.** What about the “GUS activity (hydrolysis rate of MUG)” value (HsGUS (human GUS); [Inhibitor 1] =100 nM, [MUG] 1.6 mM) of the same molecule?
**A.** Its value is 4730.59 and 4939.86.

**Q.** And the “GUS activity (hydrolysis rate of MUG)” value (HsGUS (human GUS); [Inhibitor 1] =100 nM, [MUG] 2 mM)?
**A.** The value was 5626.48 and 5332.35.

**Q.** And the “GUS activity (hydrolysis rate of MUG)” value (HsGUS (human GUS); [Inhibitor 1] =200 nM, [MUG] 0.1 mM)?
**A.** The value was 493.269 and 528.779.

**Q.** What about the “GUS activity (hydrolysis rate of MUG)” value (HsGUS (human GUS); [Inhibitor 1] =200 nM, [MUG] 0.2 mM) of the same molecule?
**A.** The value was 887.805 and 953.041.

**Q.** And the “GUS activity (hydrolysis rate of MUG)” value (HsGUS (human GUS); [Inhibitor 1] =200 nM, [MUG] 0.4 mM)?
**A.** The value was 1572.94 and 1681.59.

**Q.** And the “GUS activity (hydrolysis rate of MUG)” value (HsGUS (human GUS); [Inhibitor 1] =200 nM, [MUG] 0.6 mM)?
**A.** Its value is 2196.34 and 2140.47.

**Q.** What about the “GUS activity (hydrolysis rate of MUG)” value (HsGUS (human GUS); [Inhibitor 1] =200 nM, [MUG] 0.8 mM) of the same molecule?
**A.** The value was 2605.47 and 2684.29.

**Q.** And the “GUS activity (hydrolysis rate of MUG)” value (HsGUS (human GUS); [Inhibitor 1] =200 nM, [MUG] 1.2 mM)?
**A.** Its value is 3423.7 and 3486.94.

**Q.** What about the “GUS activity (hydrolysis rate of MUG)” value (HsGUS (human GUS); [Inhibitor 1] =200 nM, [MUG] 1.6 mM) of the same molecule?
**A.** Its value is 4057.78 and 4000.72.

**Q.** What about the “GUS activity (hydrolysis rate of MUG)” value (HsGUS (human GUS); [Inhibitor 1] =200 nM, [MUG] 2 mM) of the same molecule?
**A.** Its value is 4782.69 and 4439.05.

**Q.** And the pKa [1]?
**A.** The pKa was 8.0.
